Experimental data as given in PubChem BioAssay (NCI).
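The compound was tested at five concentrations on cells cultured in 96-well plates, with a 48-hour exposure period. Abbreviation: GI50, concentration required for 50% inhibition of growth. The concentration for full growth arrest is given as TGI.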

Experiments:
Experiment in all cases: growth of human tumour cells (NCI), 48 h
OVCAR-5 ovarian = test system: OVCAR-5 ovarian
T-47D breast = test system: T-47D breast
TK-10 renal = test system: TK-10 renal
HCT-15 colon = test system: HCT-15 colon
OVCAR-4 ovarian = test system: OVCAR-4 ovarian
HCT-116 colon = test system: HCT-116 colon
A549 NSCLC = test system: A549 NSCLC
NCI/ADR-RES ovarian = test system: NCI/ADR-RES ovarian
LOX IMVI melanoma = test system: LOX IMVI melanoma
BT-549 breast = test system: BT-549 breast
HL-60(TB) leukemia = test system: HL-60(TB) leukemia
SK-MEL-2 melanoma = test system: SK-MEL-2 melanoma
MDA-MB-231 breast = test system: MDA-MB-231 breast
CAKI-1 renal = test system: CAKI-1 renal
SNB-19 CNS = test system: SNB-19 CNS
SK-MEL-5 melanoma = test system: SK-MEL-5 melanoma
HOP-92 NSCLC = test system: HOP-92 NSCLC
PC-3 prostate = test system: PC-3 prostate
NCI-H460 lung = test system: NCI-H460 lung
SK-MEL-28 melanoma = test system: SK-MEL-28 melanoma
SF-295 CNS = test system: SF-295 CNS
OVCAR-3 ovarian = test system: OVCAR-3 ovarian
OVCAR-8 ovarian = test system: OVCAR-8 ovarian
UACC-62 melanoma = test system: UACC-62 melanoma
NCI-H226 lung = test system: NCI-H226 lung
SW-620 colon = test system: SW-620 colon
SR leukemia = test system: SR leukemia
DU-145 prostate = test system: DU-145 prostate

## CN(C)CCCNCc1ccc(-c2ccc(F)c(Cl)c2)o1
OVCAR-5 ovarian
  GI50: 15.5 µM
  TGI: 33.6 µM
T-47D breast
  GI50: 11.8 µM
  TGI: 28.3 µM
TK-10 renal
  GI50: 16.3 µM
  TGI: 31.5 µM
HCT-15 colon
  GI50: 12.2 µM
  TGI: 32.4 µM
OVCAR-4 ovarian
  GI50: 13 µM
  TGI: 35.8 µM
HCT-116 colon
  GI50: 8.33 µM
  TGI: 25 µM
A549 NSCLC
  GI50: 16.1 µM
  TGI: 31.8 µM
NCI/ADR-RES ovarian
  GI50: 15.7 µM
  TGI: 33.4 µM
LOX IMVI melanoma
  GI50: 5.23 µM
  TGI: 18.2 µM
BT-549 breast
  GI50: 11.8 µM
  TGI: 26 µM
HL-60(TB) leukemia
  GI50: 14.1 µM
  TGI: 30.7 µM
SK-MEL-2 melanoma
  GI50: 15.9 µM
  TGI: 31.2 µM
MDA-MB-231 breast
  GI50: 9.89 µM
  TGI: 22.3 µM
CAKI-1 renal
  GI50: 12.6 µM
  TGI: 27.3 µM
SNB-19 CNS
  GI50: 15.3 µM
  TGI: 32.8 µM
SK-MEL-5 melanoma
  GI50: 3.69 µM
  TGI: 13.9 µM
HOP-92 NSCLC
  GI50: 3.06 µM
  TGI: 20 µM
PC-3 prostate
  GI50: 12.2 µM
  TGI: 26.5 µM
NCI-H460 lung
  GI50: 14.3 µM
  TGI: 29.8 µM
SK-MEL-28 melanoma
  GI50: 10.2 µM
  TGI: 22.1 µM
SF-295 CNS
  GI50: 14.3 µM
  TGI: 31.2 µM
OVCAR-3 ovarian
  GI50: 15.4 µM
  TGI: 29.8 µM
OVCAR-8 ovarian
  GI50: 16.2 µM
  TGI: 36.5 µM
UACC-62 melanoma
  GI50: 1.88 µM
  TGI: 3.79 µM
NCI-H226 lung
  GI50: 16.8 µM
  TGI: 35 µM
SW-620 colon
  GI50: 14 µM
  TGI: 30.3 µM
SR leukemia
  GI50: 2.96 µM
  TGI: 8.37 µM
DU-145 prostate
  GI50: 16.6 µM
  TGI: 30.6 µM
